Laboratory results from ChEMBL document CHEMBL1201862, “PubChem BioAssay data set” (2004).
pIC50: −log10 of the molar value. The source made the active and inactive calls.

Experiments:
BJ [1] = test: cytotoxicity toward BJ-TERT fibroblasts, dose response, cell-based, RAS-independent, luminescence (AID 1933); format: functional; details: Homo sapiens
[2] = cytotoxicity toward DRD oncogenic fibroblasts, dose response, cell-based, non-viral oncogenic, luminescence (AID 1934); format: functional; details: Homo sapiens
BJ [3] = test: cytotoxicity toward Ras-transformed BJeLR fibroblasts, dose response, cell-based, alamar blue fluorescence, cherrypicked samples (AID 2631); format: functional; details: Homo sapiens;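 also: confirmatory dose-response assay in RAS-dependent BJ fibroblasts engineered with TERT, LT and ST, with cytotoxicity read by fluorescence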
INS1 = test: beta cell apoptosis inhibitors, cytokine rescue, dose response, luminescence, retest (AID 449756); format: functional, cell-based; details: Rattus norvegicus;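 also: cell death triggered by IL-1 beta plus TNF-alpha plus IFN-gamma mixture; protective hits raise ATP signal compared with cytokine alone wells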
BJ [4] = test: cytotoxicity toward BJ-TERT-LT-ST fibroblasts, dose response, cell-based, RAS-independent, luminescence (AID 1935); format: functional; details: Homo sapiens;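 also: BJ fibroblasts immortalized with TERT plus LT and ST oncogenes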
Protein RecA = target: T1, Protein RecA (Mycobacterium tuberculosis, UniProt P9WHJ3); test: Fluorescence Cell-Free Homogeneous Dose Retest to Identify Inhibitors of RecA-Intein Splicing Activity. [Related pubchem assays (depositor defined):AID2097, AID2223, AID489010, AID492950]; format: functional
T1 sequence (P9WHJ3 whole entry): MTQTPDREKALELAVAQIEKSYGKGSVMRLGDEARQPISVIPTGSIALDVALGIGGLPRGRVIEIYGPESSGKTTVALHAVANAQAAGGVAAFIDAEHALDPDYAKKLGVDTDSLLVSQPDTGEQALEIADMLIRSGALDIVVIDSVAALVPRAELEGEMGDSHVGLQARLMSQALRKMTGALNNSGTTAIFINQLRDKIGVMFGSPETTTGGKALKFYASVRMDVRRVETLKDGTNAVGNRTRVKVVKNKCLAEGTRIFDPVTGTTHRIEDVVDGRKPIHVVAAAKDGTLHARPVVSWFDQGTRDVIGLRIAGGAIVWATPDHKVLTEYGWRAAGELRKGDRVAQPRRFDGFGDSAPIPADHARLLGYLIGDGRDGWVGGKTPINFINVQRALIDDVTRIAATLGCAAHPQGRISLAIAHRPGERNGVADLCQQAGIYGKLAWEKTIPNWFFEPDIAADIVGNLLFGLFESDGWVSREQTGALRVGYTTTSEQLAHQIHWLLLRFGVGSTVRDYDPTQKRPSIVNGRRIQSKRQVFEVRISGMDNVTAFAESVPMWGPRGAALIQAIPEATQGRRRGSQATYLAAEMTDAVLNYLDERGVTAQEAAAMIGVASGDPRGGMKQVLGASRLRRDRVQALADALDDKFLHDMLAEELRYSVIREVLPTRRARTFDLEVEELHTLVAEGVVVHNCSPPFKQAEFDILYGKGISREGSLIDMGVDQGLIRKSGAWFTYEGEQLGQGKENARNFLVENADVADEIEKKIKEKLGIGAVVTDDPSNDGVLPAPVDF

BJ [5] = test: cells; format: functional, cell-based; details: Homo sapiens
HEK293 = test: inhibitors of LMP1-driven NF-kB reporter, dose response, cell-based, HEK293, luciferase, cherry-pick (AID 588343); format: functional; details: Homo sapiens
Galanin receptor type 3 = Galanin receptor type 3 (Homo sapiens, UniProt O60755); test: Fluorescence-based cell-based primary high throughput dose response assay to identify antagonists of the Galanin Receptor 3 (GalR3).; format: functional
cells = format: functional, cell-based; details: HEK-CNG
Paired box protein Pax-8 = Paired box protein Pax-8 (Homo sapiens, UniProt Q06710); test: inhibitors of PAX8-driven TPO luciferase reporter, dose response, RMG-I cells, cherry-pick (AID 687027); format: functional, cell-based;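 also: luciferase reporter driven by Pax8 target thyroperoxidase promoter measured by SteadyGlo luminescence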
[6] = target: T2, Replicative DNA helicase DnaB (Mycobacterium tuberculosis, UniProt P9WMR3); test: DnaB intein splicing inhibitors, dose response, biochemical, cell-free fluorescence (AID 449749); format: functional
T2 sequence (P9WMR3 whole entry): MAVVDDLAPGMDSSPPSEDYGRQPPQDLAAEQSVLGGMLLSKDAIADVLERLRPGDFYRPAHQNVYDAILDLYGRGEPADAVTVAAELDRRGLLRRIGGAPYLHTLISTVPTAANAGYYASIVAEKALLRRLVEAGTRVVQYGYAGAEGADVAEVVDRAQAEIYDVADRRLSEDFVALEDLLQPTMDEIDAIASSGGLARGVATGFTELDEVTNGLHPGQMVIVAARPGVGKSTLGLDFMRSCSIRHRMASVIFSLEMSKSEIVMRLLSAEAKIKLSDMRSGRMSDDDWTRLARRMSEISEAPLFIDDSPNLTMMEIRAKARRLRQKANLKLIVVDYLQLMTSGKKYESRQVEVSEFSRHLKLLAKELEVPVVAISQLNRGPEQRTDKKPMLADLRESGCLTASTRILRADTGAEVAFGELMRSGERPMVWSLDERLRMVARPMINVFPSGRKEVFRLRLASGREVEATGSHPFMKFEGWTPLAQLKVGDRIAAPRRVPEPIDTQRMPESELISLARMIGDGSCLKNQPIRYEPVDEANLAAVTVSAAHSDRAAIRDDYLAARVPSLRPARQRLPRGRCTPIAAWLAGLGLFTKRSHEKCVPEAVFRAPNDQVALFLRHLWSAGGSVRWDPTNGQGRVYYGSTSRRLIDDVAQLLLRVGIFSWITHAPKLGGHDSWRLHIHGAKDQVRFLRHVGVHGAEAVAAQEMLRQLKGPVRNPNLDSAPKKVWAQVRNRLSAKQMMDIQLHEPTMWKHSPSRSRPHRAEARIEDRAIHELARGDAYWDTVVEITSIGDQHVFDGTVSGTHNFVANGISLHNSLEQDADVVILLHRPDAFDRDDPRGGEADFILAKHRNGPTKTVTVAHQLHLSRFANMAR

DNA topoisomerase = DNA topoisomerase (Yersinia pestis, UniProt A0A2S9PM60); test: Y. pestis Topo-I inhibitors, cleavage product readout, dose response, biochemical, cherry-pick (AID 588525)
[7] = target: G-protein coupled receptor 55 (Homo sapiens, UniProt Q9Y2T6); test: GPR55 antagonists blocking LPI-driven arrestin recruitment, primary screen, imaging, U2OS, beta-arrestin-GFP, LPI agonist (AID 2013); format: functional;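 also: antagonist potency measured as reduced agonist-driven arrestin aggregation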
Mu-type opioid receptor = Mu-type opioid receptor (Homo sapiens, UniProt P35372); test: HTS Image-Based Screen for Agonists of the MOR Receptor. [Related pubchem assays (depositor defined):AID1777, AID1785, AID1786, AID2133]; format: functional;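 also: imaging of beta-arrestin GFP recruitment into spots after receptor activation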
Beta Lactamase = Beta Lactamase (Pseudomonas aeruginosa, UniProt Q932Y6); test: beta-lactamase reporter inhibitor potency, dose response, artefact control for TLR9-MyD88 binding inhibitor project, BLA reporter cells, FRET fluorescence (AID 588341); format: cell-based;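 also: cell based assay in CHO-K1 cells stably expressing beta-lactamase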
CHO = test: cytotoxicity in TLR9-MyD88 CHO cells, dose response, cytotoxicity control for TLR9-MyD88 binding inhibitor project, cell-based, luminescence (AID 588339); format: functional, hamster; details: Cricetulus griseus;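 also: CHO cells stably coexpressing TLR9 and MyD88 fusions from primary screen; compound exposure lasted 48 hours before viability readout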
HeLa = test: Cytotoxicity counterscreen assay for transcriptional activators of heat shock protein 70 (Hsp70). [Related pubchem assays: 1203, 1252 ]; format: functional; details: Homo sapiens;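 also: cells exposed to compound for 16 hours before readout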
[8] = target: T3, Delta-type opioid receptor (Homo sapiens, UniProt P41143); test: HTS Image-Based Screen for Agonists of the DOR Receptor. [Related pubchem assays (depositor defined):AID1777, AID1786, AID2133]; format: functional
Beta-galactosidase = Beta-galactosidase (Escherichia coli, UniProt Q8VNN2); format: functional
[9] = target: T4, Kappa-type opioid receptor (Homo sapiens, UniProt P41145); format: functional
[10] = C. albicans growth with fluconazole, confirmation, fluorescence, retest (AID 2467); format: functional, cell-based
[11] = NIH-3T3 fibroblast cytotoxicity, dose response, cytotoxicity control, cell-based, fluorescence, Alamar Blue, secondary assay (AID 2327); format: functional;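 also: NIH-3T3 mouse fibroblasts cultured with fluconazole at 8 µg/mL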
[12] = target: T3, Delta-type opioid receptor; test: HTS Image-Based Screen for Antagonists of the DOR Receptor. [Related pubchem assays (depositor defined):AID1777, AID1785, AID1786, AID2133]; format: functional
[13] = target: T4, Kappa-type opioid receptor; format: functional; remark: listed apart in the source

T3 sequence (P41143 whole entry): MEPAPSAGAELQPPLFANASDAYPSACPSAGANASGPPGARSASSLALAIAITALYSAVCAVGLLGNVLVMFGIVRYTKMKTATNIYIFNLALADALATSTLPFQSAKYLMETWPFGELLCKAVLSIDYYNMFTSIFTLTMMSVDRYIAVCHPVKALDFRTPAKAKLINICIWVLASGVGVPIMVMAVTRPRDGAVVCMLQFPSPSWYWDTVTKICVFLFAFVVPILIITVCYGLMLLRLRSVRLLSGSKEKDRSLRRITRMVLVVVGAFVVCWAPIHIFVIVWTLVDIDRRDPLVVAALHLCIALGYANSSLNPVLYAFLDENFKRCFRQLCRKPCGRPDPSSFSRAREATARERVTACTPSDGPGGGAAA
T4 sequence (P41145 whole entry): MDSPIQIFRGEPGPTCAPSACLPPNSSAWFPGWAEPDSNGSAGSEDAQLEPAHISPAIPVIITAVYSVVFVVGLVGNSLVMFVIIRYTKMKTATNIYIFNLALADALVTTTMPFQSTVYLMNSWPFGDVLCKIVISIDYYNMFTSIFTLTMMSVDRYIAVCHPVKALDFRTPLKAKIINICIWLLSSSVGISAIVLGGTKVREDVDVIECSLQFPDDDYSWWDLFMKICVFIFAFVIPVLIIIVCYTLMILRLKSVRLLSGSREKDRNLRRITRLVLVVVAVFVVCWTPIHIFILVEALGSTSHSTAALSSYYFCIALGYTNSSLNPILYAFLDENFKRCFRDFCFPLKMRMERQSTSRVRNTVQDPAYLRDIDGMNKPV
Mu-type opioid receptor, sequence (P35372 whole entry): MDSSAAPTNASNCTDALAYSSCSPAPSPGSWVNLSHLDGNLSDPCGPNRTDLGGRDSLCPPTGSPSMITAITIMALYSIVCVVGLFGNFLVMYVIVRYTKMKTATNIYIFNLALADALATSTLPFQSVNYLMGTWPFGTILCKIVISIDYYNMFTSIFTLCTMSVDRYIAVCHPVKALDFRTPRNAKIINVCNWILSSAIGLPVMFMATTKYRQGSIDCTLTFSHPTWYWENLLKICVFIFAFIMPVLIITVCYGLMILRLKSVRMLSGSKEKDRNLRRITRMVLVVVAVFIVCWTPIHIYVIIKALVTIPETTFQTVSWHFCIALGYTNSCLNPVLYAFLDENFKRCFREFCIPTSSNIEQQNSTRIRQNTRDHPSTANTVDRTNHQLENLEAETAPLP
Paired box protein Pax-8, sequence (Q06710 whole entry): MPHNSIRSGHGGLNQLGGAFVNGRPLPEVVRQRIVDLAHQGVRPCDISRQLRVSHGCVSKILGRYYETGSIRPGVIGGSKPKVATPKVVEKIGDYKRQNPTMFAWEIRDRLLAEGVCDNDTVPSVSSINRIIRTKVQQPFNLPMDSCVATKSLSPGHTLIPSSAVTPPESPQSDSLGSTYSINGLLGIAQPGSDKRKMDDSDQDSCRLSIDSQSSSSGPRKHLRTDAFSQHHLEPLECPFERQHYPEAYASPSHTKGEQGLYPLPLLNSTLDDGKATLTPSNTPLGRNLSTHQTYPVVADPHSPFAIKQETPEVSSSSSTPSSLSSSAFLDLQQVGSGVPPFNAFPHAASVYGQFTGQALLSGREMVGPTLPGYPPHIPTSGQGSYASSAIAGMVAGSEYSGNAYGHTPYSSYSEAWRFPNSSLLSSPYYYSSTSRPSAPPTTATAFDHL
Galanin receptor type 3, sequence (O60755 whole entry): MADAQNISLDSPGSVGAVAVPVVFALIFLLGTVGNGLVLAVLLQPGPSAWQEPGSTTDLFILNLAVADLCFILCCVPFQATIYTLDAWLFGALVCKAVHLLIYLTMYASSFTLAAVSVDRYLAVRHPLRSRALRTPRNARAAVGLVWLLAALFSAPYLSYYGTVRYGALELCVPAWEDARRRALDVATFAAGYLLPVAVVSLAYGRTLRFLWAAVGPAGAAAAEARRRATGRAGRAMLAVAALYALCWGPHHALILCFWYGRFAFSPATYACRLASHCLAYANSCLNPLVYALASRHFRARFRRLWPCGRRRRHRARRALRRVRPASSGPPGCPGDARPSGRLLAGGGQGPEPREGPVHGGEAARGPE
Beta-galactosidase, sequence (Q8VNN2 whole entry): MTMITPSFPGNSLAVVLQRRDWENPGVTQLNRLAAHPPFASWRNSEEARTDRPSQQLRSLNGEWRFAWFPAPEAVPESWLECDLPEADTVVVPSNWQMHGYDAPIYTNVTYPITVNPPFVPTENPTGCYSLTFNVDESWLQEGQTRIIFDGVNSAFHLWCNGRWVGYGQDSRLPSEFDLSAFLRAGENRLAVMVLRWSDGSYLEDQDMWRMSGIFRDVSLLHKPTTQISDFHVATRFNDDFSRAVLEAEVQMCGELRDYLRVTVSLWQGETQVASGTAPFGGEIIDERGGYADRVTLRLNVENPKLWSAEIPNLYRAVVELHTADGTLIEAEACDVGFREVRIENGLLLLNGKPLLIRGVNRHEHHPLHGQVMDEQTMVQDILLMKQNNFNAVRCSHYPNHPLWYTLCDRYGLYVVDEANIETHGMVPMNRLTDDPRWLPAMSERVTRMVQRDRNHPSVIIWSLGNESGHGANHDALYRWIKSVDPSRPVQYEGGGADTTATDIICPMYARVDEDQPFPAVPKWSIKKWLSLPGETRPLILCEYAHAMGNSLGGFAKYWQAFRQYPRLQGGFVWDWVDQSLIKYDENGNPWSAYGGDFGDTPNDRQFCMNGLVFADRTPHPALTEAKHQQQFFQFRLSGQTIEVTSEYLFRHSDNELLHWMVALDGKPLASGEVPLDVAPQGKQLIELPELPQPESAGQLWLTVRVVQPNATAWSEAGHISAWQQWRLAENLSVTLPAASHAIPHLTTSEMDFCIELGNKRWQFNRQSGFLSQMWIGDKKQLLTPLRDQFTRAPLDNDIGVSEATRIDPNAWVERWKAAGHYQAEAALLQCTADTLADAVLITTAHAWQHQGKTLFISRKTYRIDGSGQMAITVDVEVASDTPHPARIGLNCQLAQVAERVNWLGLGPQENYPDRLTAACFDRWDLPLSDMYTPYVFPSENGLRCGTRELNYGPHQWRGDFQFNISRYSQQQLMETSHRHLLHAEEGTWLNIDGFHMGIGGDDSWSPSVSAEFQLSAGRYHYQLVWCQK
G-protein coupled receptor 55, sequence (Q9Y2T6 whole entry): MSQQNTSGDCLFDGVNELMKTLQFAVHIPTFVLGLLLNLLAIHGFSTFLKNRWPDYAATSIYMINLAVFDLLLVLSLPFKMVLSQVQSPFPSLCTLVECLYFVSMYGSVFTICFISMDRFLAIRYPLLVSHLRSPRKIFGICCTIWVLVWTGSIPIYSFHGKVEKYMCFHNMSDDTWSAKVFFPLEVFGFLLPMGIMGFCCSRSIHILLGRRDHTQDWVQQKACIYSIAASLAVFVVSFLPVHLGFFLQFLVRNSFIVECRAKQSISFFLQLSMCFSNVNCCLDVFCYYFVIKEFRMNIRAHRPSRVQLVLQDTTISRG
Beta Lactamase, sequence (Q932Y6 whole entry, the tested form may be a part): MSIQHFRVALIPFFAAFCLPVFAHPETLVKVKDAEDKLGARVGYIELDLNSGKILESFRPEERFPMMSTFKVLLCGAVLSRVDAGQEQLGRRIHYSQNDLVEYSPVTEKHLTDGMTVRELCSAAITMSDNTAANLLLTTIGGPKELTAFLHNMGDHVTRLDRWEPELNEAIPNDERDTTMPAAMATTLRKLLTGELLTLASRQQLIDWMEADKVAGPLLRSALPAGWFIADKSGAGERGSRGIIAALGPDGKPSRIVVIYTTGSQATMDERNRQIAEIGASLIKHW
DNA topoisomerase, sequence (A0A2S9PM60 whole entry): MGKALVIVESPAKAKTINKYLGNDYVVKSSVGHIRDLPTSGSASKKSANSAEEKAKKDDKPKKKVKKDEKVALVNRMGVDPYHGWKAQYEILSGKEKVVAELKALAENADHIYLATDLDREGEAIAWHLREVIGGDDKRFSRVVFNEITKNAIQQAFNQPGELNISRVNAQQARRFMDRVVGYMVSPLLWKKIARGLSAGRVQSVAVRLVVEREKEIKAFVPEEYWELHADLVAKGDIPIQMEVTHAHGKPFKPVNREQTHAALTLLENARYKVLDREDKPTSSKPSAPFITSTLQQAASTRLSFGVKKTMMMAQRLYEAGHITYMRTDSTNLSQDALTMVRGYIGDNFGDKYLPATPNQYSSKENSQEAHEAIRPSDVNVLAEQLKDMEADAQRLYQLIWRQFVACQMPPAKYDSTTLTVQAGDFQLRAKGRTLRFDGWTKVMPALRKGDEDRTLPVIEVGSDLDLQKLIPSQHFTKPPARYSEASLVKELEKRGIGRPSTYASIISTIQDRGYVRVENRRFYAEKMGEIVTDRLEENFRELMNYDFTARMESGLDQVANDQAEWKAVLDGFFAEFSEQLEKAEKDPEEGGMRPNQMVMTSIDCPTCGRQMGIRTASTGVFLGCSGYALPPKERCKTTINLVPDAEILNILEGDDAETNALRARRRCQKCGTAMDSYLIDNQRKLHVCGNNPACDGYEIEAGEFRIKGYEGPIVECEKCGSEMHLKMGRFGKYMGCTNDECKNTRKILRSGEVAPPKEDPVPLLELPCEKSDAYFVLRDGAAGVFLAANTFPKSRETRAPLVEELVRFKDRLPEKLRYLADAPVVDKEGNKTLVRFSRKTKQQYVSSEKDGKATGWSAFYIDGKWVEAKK

**Q.** For `N#CC(C#N)=NNc1ccc(-n2ccc(C(F)(F)F)n2)cc1`, which EC50 (BJ [1]) is on record?
**A.** 13.6 µM (inconclusive)

**Q.** What about the EC50 [2] of the same molecule?
**A.** 18.2 µM (inconclusive)

**Q.** What about the EC50 (BJ [3]) of the same molecule?
**A.** > 133 µM (inactive)

**Q.** And the AC50 (INS1)?
**A.** 5.57 µM (active)

**Q.** And the EC50 (BJ [4])?
**A.** > 150 µM (not active)

**Q.** What about the EC50 (Protein RecA) of the same molecule?
**A.** 2.98 µM (active)

**Q.** And the EC50 (BJ [5])?
**A.** 11.4 µM (active)

**Q.** What about the AC50 (HEK293) of the same molecule?
**A.** 3.38 µM (active)

**Q.** And the IC50 (Galanin receptor type 3)?
**A.** > 1.11 µM (active)

**Q.** And the EC50 (cells)?
**A.** > 29.9 µM (inactive)

**Q.** And the AC50 (Paired box protein Pax-8)?
**A.** 3.44 µM (active)

**Q.** And the AC50 [6]?
**A.** 2.03 µM (active)

**Q.** With `Cc1c(C(=O)OCC(=O)N(CC(C)C)c2c(N)n(Cc3ccccc3)c(=O)[nH]c2=O)oc2ccccc12` as the molecule, how does the AC50 (DNA topoisomerase) read?
**A.** 9.46 µM (active)

**Q.** What does the source list for `CNc1cc(Cl)c2nonc2c1[N+](=O)[O-]`?
**A.** IC50 [7]: 1.11 µM (active); EC50 (Mu-type opioid receptor): > 32 µM (inactive); EC50 (Protein RecA): 1.77 µM (active); IC50 (Beta Lactamase): 4.73 µM (active); IC50 (CHO): 1.68 µM (active); CC50 (HeLa): > 1.22 µM (active); EC50 [8]: > 32 µM (inactive); AC50 [6]: 5.31 µM (active); EC50 (Beta-galactosidase): > 31.5 µM (inactive); pIC50 [9]: 5.07; EC50 [10]: 0.752 µM (active); EC50 [11]: 4.78 µM (inconclusive); IC50 [12]: 10.4 µM (inactive); IC50 [13]: 2.96 µM (active)
